Reference: patent US5516784A, “Anti-HIV (AIDS) agents” (Schering Corporation, priority 1994, dated 1996)
Converted amounts (≈) assume the structure as drawn.

Legend:
HIV-1, isolate III B = assay: Test 2: inhibition of the growth of HIV-1 in tissue culture cells (CEM-SS, syncytia formation); format: cell-based; conditions: Human immunodeficiency virus 1, 168 h, 7 days, read-out: HIVMIC IC50
Source text: TEST 2-INHIBITION OF THE GROWTH OF HIV-1 IN TISSUE CULTURE CELLS
This test measured the capability of the compounds to inhibit the growth of HIV-1 in tissue culture cells. CEM-SS cells (human T-lymphocyte derived tissue culture cells) were infected with HIV-1, isolate III B which was produced in tissue culture. After 7 days, the virus has killed the cells as monitored by extensive syncytia formation (cell fusion). The test measured the capability of the chemical synthetic compounds to prevent syncytia formation and cell death. CEM cells were grown at 37° C. in an atmosphere of 5% CO2. HIV isolate III B was prepared by growth in and crude purification from CEM cells. The chemical synthetic compound was added to 96 well microtiter plates and diluted in varying steps across the wells of the plate. Cells and virus were added to each well and the concentration of the chemical synthetic compound required to inhibit syncytia formation by 50% (the IC50) after 7 days was determined. The viability of CEM cells which are not infected with HIV-1 isolate III B was simultaneously determined by the MTT assay, as described in Mossman, J. Immunolog. Methods 65:55-63, 1983, which is herein incorporated by reference.

HIV1 protease [1] = biological target: T1, HIV1 protease (Human immunodeficiency virus type 1 group M subtype B, UniProt P04585); assay: Test 1: inhibition of proteolytic activity of HIV-1 protease (HPLC); format: biochemical; set-up: proteolytic activity of HIV-1 protease
Description: TEST I-INHIBITION OF PROTEOLYTIC ACTIVITY OF HIV-1-PROTEASE
The ability of compounds of the invention to inhibit the proteolytic activity of HIV-1 protease was determined by using the method of Louis, et al., Biochem. Biophys. Res. Comm. 159:87-94, (1989), which is herein incorporated by reference. In using the method of Louis et al., HIV Substrate III, His-Lys-Ala-Arg-VaI-Leu-pNO2 Phe-Glu-Ala-Nle-Ser-NH2 purchased from Bachem Bioscience, Inc. Philadelphia, Pa. was used in place of the nonapeptide substrate […]amide.

HIV1 protease [2] = biological target: T1, HIV1 protease; assay: Test 3: inhibition of proteolytic activity of HIV-1 protease by scintillation proximity assay (SPA); format: biochemical; conditions: SPA; room temperature, 40 minutes; read-out: Enzyme Assays (SPA) IC50
Source text: TEST 3-INHIBITION OF PROTEOLYTIC ACTIVITY OF HIV-1-PROTEASE AS DETERMINED BY SCINTILLATION […] ASSAY (SPA).
This is an alternative assay to test #1 and is used to determine the ability of compounds to inhibit the HIV1 protease activity. The SPA assay for HIV1 protease has been developed by Amersham Corporation, Arlington Heights, Ill., and is available for commercial use. In this system the substrate for HIV1 protease, AcN-(I^125)[…]SPA bead, is cleaved by the HIV1 protease at the Phe-Phe bond releasing the I^125 -labelled peptide fragment from the SPA bead. This event causes removal of detectable signal from the microsphere bead indicated by reduction in radioactivity (measured in CPM), which is proportional to the proteolytic activity. The substrate, and the HIV 1 protease were incubated in presence of synthetic compound in various dilutions at room temperature for 40 minutes, and the concentration of the compound required to inhibit the proteolytic activity by 50% (IC50) was determined.

[3] = HPLC, HIV Substrate III, read-out: Enzyme Assays (HPLC) IC50

| SMILES | IC50 (HIV-1, isolate III B) | IC50 (HIV1 protease [1]; [3]) | IC50 (HIV1 protease [2]) | IC50 (HIV1 protease [1]; intermediate compound, read-out: IC50 in Test 1, Inhibition of Proteolytic Activity of HIV-1-Protease) |
| --- | --- | --- | --- | --- |
| CCC[C@H](NC(=O)[C@H](CC(N)=O)NC(=O)c1ccc2ccccc2n1)[C@H](O)COc1ccccc1C(=O)NC(C)(C)C [Compound 77] | 17.5 µg/mL (≈ 30.3 µM) |  |  |  |
| CC(C)[C@H](NC(=O)c1ccc2ccccc2n1)C(=O)N[C@@H](Cc1ccccc1)[C@@H](O)CSc1ccccc1C(=O)NC(C)(C)C [Compound 49] | 19.4 µg/mL (≈ 30.9 µM) | 0.08 µM |  |  |
| CC(C)(C)NC(=O)c1ccccc1OC[C@H](O)[C@H](Cc1ccccc1)NC(=O)[C@H](CC(N)=O)NC(=O)c1ccc2ccccc2n1 [Compound 4] | 1.7 µg/mL (≈ 2.72 µM) | 0.01 µM |  |  |
| CCC(C)[C@H](NC(=O)c1ccc2ccccc2n1)C(=O)N[C@@H](Cc1ccccc1)[C@@H](O)CSc1ccccc1C(=O)NC(C)(C)C (some centres unmarked) [Compound 35] | 2.1 µg/mL (≈ 3.28 µM) | 0.026 µM |  |  |
| CC(C)[C@H](NC(=O)OC(C)(C)C)C(=O)N[C@@H](Cc1ccccc1)[C@@H](O)CSc1ccccc1C(=O)NC(C)(C)C [IN 4] |  | > 0.1 µM |  |  |
| COc1ccc(C[C@H](NC(=O)OC(C)(C)C)C(=O)N[C@@H](Cc2ccccc2)[C@@H](O)CSc2ccccc2C(=O)NC(C)(C)C)cc1 [IN 2] |  | > 0.1 µM |  |  |
| CC(C)(C)NC(=O)c1ccccc1SC[C@@H](O)[C@H](CC1CCCCC1)NC(=O)[C@H](CC(N)=O)NC(=O)c1ccc2ccccc2n1 [Compound 78] | 0.68 µg/mL (≈ 1.05 µM) |  | 0.23 µM |  |
| CC(C)(C)NC(=O)c1ccccc1SC[C@H](O)[C@H](Cc1ccccc1)NC(=O)[C@H](CC(N)=O)NC(=O)c1cccc[n+]1[O-] [Compound 55] |  | > 0.1 µM |  |  |
| NC(=O)C[C@H](NC(=O)c1ccc2ccccc2n1)C(=O)N[C@@H](Cc1ccccc1)[C@H](O)CSc1ccccc1C(=O)NC12CC3CC(CC(C3)C1)C2 [Compound 30] |  | > 0.05 µM |  |  |
| CC(C)(C)NC(=O)C1CCCC1SCC(O)[C@H](Cc1ccccc1)NC(=O)[C@H](CC(N)=O)NC(=O)c1ccc2ccccc2n1 (some centres unmarked) [Compound 13] | 5.07 µg/mL (≈ 8 µM) | 0.3 µM |  |  |
| CC(C)(C)NC(=O)c1ccccc1SC[C@H](O)[C@H](Cc1ccccc1)NC(=O)[C@H](CC(N)=O)NC(=O)c1ccccn1 [Compound 54] |  | > 0.1 µM |  |  |
| CC(C)(C)NC(=O)c1ccccc1OC[C@H](O)[C@H](Cc1ccccc1)NC(=O)[C@H](CC(N)=O)NC(=O)c1cnc2ccccc2n1 [Compound 59] | 1.41 µg/mL (≈ 2.25 µM) | 0.005 µM |  |  |
| CC(C)(C)NC(=O)c1ccccc1SC[C@H](O)[C@H](Cc1ccccc1)NC(=O)[C@H](CC(N)=O)NC(=O)c1ccc2ccccc2n1 [Compound 2] | 7.99 µg/mL (≈ 12.4 µM) | < 0.5 µM |  |  |
| CC(C)(C)NC(=O)c1ccccc1SC[C@H](O)[C@H](Cc1ccccc1)NC(=O)[C@H](Cc1c[nH]c2ccccc12)NC(=O)c1ccc2ccccc2n1 [Compound 51] |  | > 0.005 µM |  |  |
| CC(C)(C)NC(=O)c1ccccc1SC[C@H](O)[C@H](Cc1ccccc1)NC(=O)[C@@H]1CCCN1C(=O)c1ccc2ccccc2n1 [Compound 32] |  | > 0.05 µM |  |  |
| CC(C)(C)NC(=O)c1ccccc1SC[C@@H](O)[C@H](Cc1ccccc1)NC(=O)[C@H](CC(N)=O)NC(=O)c1ccc2ccccc2n1 [Compound 3] | 0.537 µg/mL (≈ 0.837 µM) | 0.054 µM |  |  |
| COc1ccc(C[C@H](NC(=O)c2ccc3ccccc3n2)C(=O)N[C@@H](Cc2ccccc2)[C@@H](O)CSc2ccccc2C(=O)NC(C)(C)C)cc1 [Compound 43] |  | > 0.1 µM |  |  |
| CC(C)(C)NC(=O)c1ccccc1OC[C@@H](O)[C@H](Cc1ccccc1)NC(=O)[C@H](CC(N)=O)NC(=O)c1ccc2ccccc2n1 [Compound 5] | 1.77 µg/mL (≈ 2.83 µM) | 0.008 µM |  |  |
| CC(C)(C)NC(=O)c1ccccc1OC[C@H](O)[C@H](Cc1ccccc1)NC(=O)[C@H](CC(N)=O)NC(=O)OCc1ccccc1 [IN 1] | 4.95 µg/mL (≈ 8.19 µM) |  | 0.08 µM |  |
| CC(C)(C)NC(=O)c1ccccc1SC[C@H](O)[C@H](Cc1ccccc1)NC(=O)[C@@H](CC(N)=O)NC(=O)c1ccc2ccccc2n1 [Compound 47] |  | > 0.1 µM |  |  |

| SMILES | IC50 (HIV-1, isolate III B) | IC50 (HIV1 protease [1]; [3]) | IC50 (HIV1 protease [2]) | IC50 (HIV1 protease [1]; intermediate compound, read-out: IC50 in Test 1, Inhibition of Proteolytic Activity of HIV-1-Protease) |
| --- | --- | --- | --- | --- |
| CC(C)(C)NC(=O)c1ccccc1SC[C@H](O)[C@H](Cc1ccccc1)NC(=O)[C@H](CCC(N)=O)NC(=O)OC(C)(C)C [IN 3] |  | > 0.1 µM |  |  |
| CC(C)(C)NC(=O)c1ccccc1S(=O)(=O)C[C@H](O)[C@H](Cc1ccccc1)NC(=O)[C@H](CCS(C)(=O)=O)NC(=O)c1ccc2ccccc2n1 [Compound 45] |  | > 0.1 µM |  |  |
| CC(C)(C)NC(=O)c1ccccc1SC[C@H](O)[C@H](Cc1ccc(O)cc1)NC(=O)[C@H](CC(N)=O)NC(=O)c1ccc2ccccc2n1 [Compound 79] | 9.1 µg/mL (≈ 13.8 µM) |  | > 0.5 µM |  |
| CC(C)(C)NC(=O)c1ccccc1SC[C@H](O)[C@H](Cc1ccccc1)NC(=O)[C@H](Cc1c[nH]c2ccccc12)NC(=O)OC(C)(C)C [IN 6] |  | > 0.1 µM |  |  |
| CN(C)C(=O)C[C@H](NC(=O)c1ccc2ccccc2n1)C(=O)N[C@@H](Cc1ccccc1)[C@@H](O)CSc1ccccc1C(=O)NC(C)(C)C [Compound 41] |  | > 0.1 µM |  |  |
| CC(C)(C)NC(=O)c1ccccc1OC[C@H](O)[C@H](Cc1ccccc1)NC(=O)[C@H](CC(N)=O)NC(=O)c1ccc2ccccc2[n+]1[O-] [Compound 7] | 5.69 µg/mL (≈ 8.87 µM) | 0.05 µM |  |  |
| CC(C)(C)NC(=O)c1ccccc1SC[C@H](O)[C@H](Cc1ccccc1)NC(=O)[C@H](Cc1ccccc1)NC(=O)c1ccc2ccccc2n1 [Compound 33] |  | > 0.5 µM |  |  |
| CC(C)(C)NC(=O)c1ccccc1SC[C@H](O)[C@H](Cc1ccccc1)NC(=O)[C@H](CC(N)=O)NC(=O)c1ccc[n+]([O-])c1 [Compound 57] |  | > 0.1 µM |  |  |
| NC(=O)C[C@H](NC(=O)c1ccc2ccccc2n1)C(=O)N[C@@H](Cc1ccccc1)[C@@H](O)CSc1ncccn1 [Compound 1] |  | > 0.05 µM |  |  |
| CSCC[C@H](NC(=O)c1ccc2ccccc2n1)C(=O)N[C@@H](Cc1ccccc1)[C@@H](O)CSc1ccccc1C(=O)NC(C)(C)C [Compound 44] |  | > 0.1 µM |  |  |
| CC(C)(C)NC(=O)c1ccccc1SC[C@H](O)[C@H](Cc1ccccc1)NC(=O)[C@H](CC(N)=O)NC(=O)c1ccc2ccccc2c1 [Compound 52] | 8.58 µg/mL (≈ 13.4 µM) |  | 0.39 µM |  |
| CSCC[C@H](NC(=O)OC(C)(C)C)C(=O)N[C@@H](Cc1ccccc1)[C@@H](O)CSc1ccccc1C(=O)NC(C)(C)C [IN 5] |  | > 0.1 µM |  |  |
| CCCCNC(=O)c1ccccc1SC[C@H](O)[C@H](Cc1ccccc1)NC(=O)[C@H](CC(N)=O)NC(=O)c1ccc2ccccc2n1 [Compound 8] | 28.1 µg/mL (≈ 43.8 µM) | 0.4 µM |  |  |
| NC(=O)C[C@H](NC(=O)c1ccc2ccccc2n1)C(=O)N[C@@H](Cc1ccccc1)[C@@H](O)CSC1CCCC1C(=O)Nc1ccccc1 (some centres unmarked) [Compound 16] |  | > 0.5 µM |  |  |
| NC(=O)C[C@H](NC(=O)c1ccc2ccccc2n1)C(=O)N[C@@H](Cc1ccccc1)[C@@H](O)CSC1CCCC1C(=O)Nc1ccccc1 (some centres unmarked) [Compound 20] | 6.26 µg/mL (≈ 9.57 µM) | 0.074 µM |  |  |
| NC(=O)C[C@H](NC(=O)c1ccc2ccccc2n1)C(=O)N[C@@H](Cc1ccccc1)[C@@H](O)CSC1CCCC1C(=O)Nc1ccccc1 (some centres unmarked) [Compound 18] |  | > 0.5 µM |  |  |
| CCC(C)[C@H](NC(=O)c1ccc2ccccc2n1)C(=O)N[C@@H](Cc1ccccc1)[C@@H](O)COc1ccccc1C(=O)NC(C)(C)C (some centres unmarked) [Compound 37] | 6.08 µg/mL (≈ 9.73 µM) | 0.06 µM |  |  |
| CC(C)(C)NC(=O)c1ccccc1SC[C@H](O)[C@H](Cc1ccccc1)NC(=O)[C@H](CC(N)=O)NC(=O)c1ccc(O)cn1 [Compound 56] |  | > 0.1 µM |  |  |
| CC(C)(C)NC(=O)c1ccccc1SCC(O)C(Cc1ccccc1)NC(=O)OC(C)(C)C (centres unmarked) |  |  |  | 3 µM |
| CC(C)(C)NC(=O)c1ccccc1SC[C@H](O)[C@H](Cc1ccccc1)NC(=O)[C@H](CCC(N)=O)NC(=O)c1ccc2ccccc2n1 [Compound 48] |  | > 0.1 µM |  |  |
